Assay results: patent US11266616B2, “Compositions and methods for inhibiting kinase activity” (BRANDEIS UNIVERSITY, priority 2016, dated 2022)
“Also recorded” adds a separate entry of the source.

Target: T1, Aurora A kinase and TPX2 (Homo sapiens, UniProt O14965, T288V)
T1 construct: 1 μM A^122-403 T288V, 100 μM TPX2^1-45 and 1 mM kemptide was used
T1 sequence (O14965 122-403 T288V): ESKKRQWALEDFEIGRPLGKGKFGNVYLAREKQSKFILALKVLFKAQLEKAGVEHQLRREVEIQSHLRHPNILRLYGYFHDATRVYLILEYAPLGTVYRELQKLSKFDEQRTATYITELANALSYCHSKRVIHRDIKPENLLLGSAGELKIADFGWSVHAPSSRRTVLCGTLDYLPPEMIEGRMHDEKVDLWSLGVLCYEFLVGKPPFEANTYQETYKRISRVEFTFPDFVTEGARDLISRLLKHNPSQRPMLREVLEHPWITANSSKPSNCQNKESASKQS
Test: Kemptide phosphorylation by dephosphorylated Aurora A kinase and TPX2 with increasing PS48 (TPX2 competition)
Type: biochemical
Conditions: 1 μM A122-403 T288V, 100 μM TPX2 1-45, 1 mM kemptide; FIGS. 28A-28B
Experimental: FIGS. 28A-28B is a set of plots showing PS48 binds to the TPX2 binding site of Aurora A kinase and PS48 competes with TPX2 for binding to Aurora A kinase in vitro. FIG. 28A is a plot showing measurements of phosphorylation of kemptide (a peptide substrate for Aurora A kinase) when incubated with dephosphorylated Aurora A kinase and TPX2 and various increasing amounts of PS48. […] In the assays shown, 1 μM A^122-403 T288V, 100 μM TPX2^1-45 and 1 mM kemptide was used.
Aurora A, either phosphorylated/dephosphorylated wild type or mutant protein, was mixed with either AP ([…]) (SEQ ID NO: 5), Kemptide (LRRASLG) (SEQ ID NO: 6), or Lats2 ([…]) (SEQ ID NO: 7), in the absence or presence of 50 μM TPX2 in kinase buffer (20 mM TrisHCl, 200 mM NaCl, 3% [vol/vol] glycerol, 20 mM MgCl2, 1 mM TCEP, pH 7.50). These substrates comprise the consensus sequence for Aurora A ([R/K/N]—R—X—[S/T]-B where B is any hydrophobic residue with the exception of Pro) (Ferrari et al., 2005, Biochem. J., 390(Pt 1):293-302; Ohashi et al., 2006, Oncogene, 25:7691-7702; Sardon et al., 2010, EMBO Reports, 11:977-984). Peptides were ordered through Genscript. For HPLC-based activity assays the following protocol was used. The reaction was initiated with the addition of 5 mM ATP. […]

For `O=C(O)/C=C(/CCc1ccc(Cl)cc1)c1ccccc1` [PS48], the “effect of PS48 on kinase activity of Aurora A incubated with TPX2” value was “inhibits kinase activity by competing off TPX2 binding; also recorded: disrupting binding of TPX2 to Aurora A kinase”.
